In patent US8440590B2, “Method for controlling soybean rust” (priority 2006, dated 2013):

Key:
Type in all cases: in vivo
[1] = test system: soybean cv. Williams (not GM); assay: Crop tolerance test (germination after seed treatment), cv. Williams
Protocol: (§1) Fifty soybean seeds of cv. S-40-R9 (RR-soybean) or cv. Williams (not GM) are sown 2 cm deep into trays filled with quarz sand. Seeds are treated prior to sowing with the formulated ais. The plants are grown at 20-23° C. in a greenhouse. If necessary, artificial lighting is supplied to give a 14 hr day.
(§2) Plant emergence 6 DAS and final stand 11 DAS is counted.

[2] = test system: soybean cv. S-40-R9 (RR-soybean); assay: Crop tolerance test (germination after seed treatment), cv. S-40-R9
Protocol: as §1, §2

Phakopsora pachyrhizi [3] = assay: Test for rust activity, leaf discs from seed-treated plants, cv. Williams; conditions: 11 DAI
Protocol: as §1
(§3) For the soybean rust assay, plants are transplanted 13 DAS into 8 cm pots filled with soil. 13 days after transplanting leaf discs are cut from the first and second true leaves and transferred to multiwell plates filled with water agar. 1 day later the leaf discs are inoculated with Phakopsora pachyrhizi. Assessment of the disease incidence is done 11 DAI (days after inoculation).

Phakopsora pachyrhizi [4] = assay: Test for rust activity, leaf discs from seed-treated plants, cv. S-40-R9; conditions: 11 DAI
Protocol: as §1, §3

[5] = GA seed treatment 1 g ai/100 kg
[6] = GA seed treatment 2 g ai/100 kg
[7] = GA seed treatment 1 g ai/100 kg, cv. Williams, fifty seeds sown
[8] = GA seed treatment 2 g ai/100 kg, cv. Williams, fifty seeds sown
[9] = GA seed treatment 1 g ai/100 kg, cv. S-40-R9, fifty seeds sown
[10] = GA seed treatment 2 g ai/100 kg, cv. S-40-R9, fifty seeds sown

CC(C1CC1)C(O)(Cn1cncn1)c1ccc(Cl)cc1 (stereo not shown) [Cyproconazole (CCZ), cyproconazole]
Germination % Emergence 6 DAS ([1]; in vivo): 0% | Germination Count 6 DAS ([1]; in vivo): 0 | Effect on plant numbers and size (phytotoxicity) ([2]; in vivo): severe reductions in plant numbers and size | Germination % Emergence 6 DAS ([2]; in vivo): 0% | Germination Count 6 DAS ([2]; in vivo): 0

C=C1C[C@]23C[C@@]1(O)CC[C@H]2[C@@]12C=C[C@H](O)[C@@](C)(C(=O)O1)[C@H]2[C@@H]3C(=O)O [Gibberelic acid (GA), gibberellic acid (gibberellin A3)]
1st Leaf % Activity (Phakopsora pachyrhizi [3]; [5]): 0.0% | 1st Leaf % Disease (Phakopsora pachyrhizi [3]; [5]): 88.9% | 2nd Leaf % Activity (Phakopsora pachyrhizi [3]; [5]): 32.4% | 2nd Leaf % Disease (Phakopsora pachyrhizi [3]; [5]): 48.3% | 1st Leaf % Activity (Phakopsora pachyrhizi [3]; [6]): 0.0% | 1st Leaf % Disease (Phakopsora pachyrhizi [3]; [6]): 87.2% | 2nd Leaf % Activity (Phakopsora pachyrhizi [3]; [6]): 28.4% | 2nd Leaf % Disease (Phakopsora pachyrhizi [3]; [6]): 51.1% | 1st Leaf % Activity (Phakopsora pachyrhizi [4]; [5]): 0.0% | 1st Leaf % Disease (Phakopsora pachyrhizi [4]; [5]): 87.8% | 2nd Leaf % Activity (Phakopsora pachyrhizi [4]; [5]): 0.0% | 2nd Leaf % Disease (Phakopsora pachyrhizi [4]; [5]): 71.1% | 1st Leaf % Activity (Phakopsora pachyrhizi [4]; [6]): 0.0% | 1st Leaf % Disease (Phakopsora pachyrhizi [4]; [6]): 82.8% | 2nd Leaf % Activity (Phakopsora pachyrhizi [4]; [6]): 0.0% | 2nd Leaf % Disease (Phakopsora pachyrhizi [4]; [6]): 68.9% | Germination % Emergence 6 DAS [1, 7]: 100% | Germination % Final Stand 11 DAS [1, 7]: 100% | Germination Count 6 DAS [1, 7]: 50 | Germination Count 11 DAS [1, 7]: 50 | Germination % Emergence 6 DAS [1, 8]: 98% | Germination % Final Stand 11 DAS [1, 8]: 98% | Germination Count 6 DAS [1, 8]: 49 | Germination Count 11 DAS [1, 8]: 49 | Germination % Emergence 6 DAS [2, 9]: 100% | Germination % Final Stand 11 DAS [2, 9]: 100% | Germination Count 6 DAS [2, 9]: 50 | Germination Count 11 DAS [2, 9]: 50 | Germination % Emergence 6 DAS [2, 10]: 96% | Germination % Final Stand 11 DAS [2, 10]: 96% | Germination Count 6 DAS [2, 10]: 48 | Germination Count 11 DAS [2, 10]: 48
